According to patent EP1059033A1, “INDUSTRIAL ANTIBACTERIAL/ANTIFUNGAL AGENTS, ALGICIDES AND ANTI-BIOLOGICAL ADHESION AGENTS CONTAINING BENZYLAMINES” (Nissan Chemical Industries, Ltd., priority 1998, dated 1999):
In brackets after ≈: the same amount, converted by molar mass. Read-outs that look alike come from different tables or passages of the source.

How the values were obtained:
Assay type in all cases: cell-based
[1] = tested on: Trichophyton mentagrophytes; assay: Agar dilution MIC (Example 3); settings: 168 h, agar plate, 27 °C, 7 days
Method: (§1) Series of diluted samples (20000, 10000, 5000, 2500, 1250, 625, 313, 156, 78, 39 mg/l) of the compounds of the invention were prepared using dimethylsulfoxide. A sensitive culture medium-N (Nissui Seiyaku Co.) was used for bacteria and a potato dextrose agar culture medium (Nissui Seiyaku Co.) was used for fungi. 0.5 ml of each sample was added to and mixed with 9.5 ml of the culture medium, poured into a Petri dish and solidified to obtain a plate. As a result, the concentration of the compounds of the invention in the agar culture medium were 1000, 500, 250, 125, 62.5, 31.3, 15.6, 7.8, 3.9, 2.0 mg/l. The bacterium inoculated were cultured in a bouillon for the assay of sensitivity (Nissui Seiyaku Co.) at 37 °C for 20 hours, and the fungi were cultured in the potato dextrose agar culture medium (Nissui Seiyaku Co.) for 10 days and then a 10^6 CFU/ml suspension was prepared from each of them. A test bacteria or fungi suspension was streaked on an agar plate containing the compound of the present invention with platinum wire loop, and the agar plate was cultured at 37±1 °C for 18 to 20 hours for bacteria or at 27 °C for 7 days for fungi. A concentration at which no growth was seen was taken as minimum inhibitory concentration (MIC). Symbols in the tables mean the followings; • A: Bacillus subtilis, • B: Trichophyton mentagrophytes, • C: Staphylococcus aureus, • D: Aspergillus niger, • E: Penicillium funiculosum, • F: Candida albicans, • G: Micrococcus luteus, • H: Corynebacterium aquaticum, • I: Chaetomium globosum, • J: Fusarium moniliforme, • K: Saccharomyces cerevisiae, • L: Rhodotorula rubra, • M: Cladosporium cladosporioides, • N: Alternaria alternata.

Bacillus subtilis [2] = assay: Agar dilution MIC (Example 3); settings: agar plate, 37±1 °C, 18 to 20 hours
Method: as §1

Staphylococcus aureus = assay: Agar dilution MIC (Example 3); settings: agar plate, 37±1 °C, 18 to 20 hours
Method: as §1

[3] = tested on: Trichophyton mentagrophytes; assay: Agar dilution MIC (Example 2); settings: 168 h, agar plate, 27 °C, 7 days
Outline: (§2)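 Compounds in DMSO were mixed into sensitive medium-N agar (bacteria) or potato dextrose agar (fungi), giving final 0.062–1000 mg/l. Plates were streaked with 10^6 CFU/ml suspensions and incubated 18–20 h at 37±1 °C (bacteria) or 7 days at 27 °C (fungi). MIC (mg/l) is the lowest concentration with no visible growth.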

Bacillus subtilis [4] = assay: Agar dilution MIC (Example 2); settings: agar plate, 37±1 °C, 18 to 20 hours
Outline: as §2

[5] = tested on: freshwater green alga (Selenastrum capricornutum); assay: Inhibition of propagation of freshwater green alga (Example 4); settings: for inhibition at 0.5 ppm: read-out: Propagation inhibiting rate(%) 500ppb
Outline: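 Log-phase Selenastrum capricornutum at 10^5 cells/ml was exposed to compound at 500 ppb or 50 ppb in culture medium and held stationary at 23±1 °C under continuous light. Cells were counted by hemacytometer after 72 h, and propagation inhibition was calculated relative to untreated culture.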

[6] = tested on: Trichophyton mentagrophytes; settings: 72 h, 100 ppm
[7] = tested on: seawater diatom [Nitzschia closterium]; assay: Inhibition of propagation of seawater diatom (Example 5); settings: Cylindrotheca closterium, 72 h, read-out: Propagation inhibiting rate(%) 500ppb
Method: A predetermined amount of each of the compounds of the invention was dissolved in culture media containing 10^5 /ml of a seawater diatom [Nitzschia closterium] at a logarithmic growth phase to prepare samples having a concentration of the compound in the medium of 500 ppb. The samples were stationary cultured at 22±1 °C for […] under continuous illumination.
After 72 hours, cells were collected by centrifugation and disrupted by addition of methanol to extract chlorophyll, and the amount of chlorophyll was measured from absorbance using a spectrophotometer to obtain propagation rate. The propagation inhibiting rate was calculated from comparison with the non-treated lot.

[8] = tested on: Corynebacterium aquaticum; assay: Agar dilution MIC (Example 3); settings: Leifsonia aquatica, agar plate, 37±1 °C, 18 to 20 hours
Method: as §1

Micrococcus luteus = assay: Agar dilution MIC (Example 3); settings: agar plate, 37±1 °C, 18 to 20 hours
Method: as §1

Rhodotorula rubra = assay: Agar dilution MIC (Example 3); settings: 168 h, agar plate, 27 °C, 7 days
Method: as §1

Alternaria alternata = assay: Agar dilution MIC (Example 3); settings: 168 h, agar plate, 27 °C, 7 days
Method: as §1

Chaetomium globosum = assay: Agar dilution MIC (Example 3); settings: 168 h, agar plate, 27 °C, 7 days
Method: as §1

[9] = tested on: Cladosporium cladosporioides; assay: Agar dilution MIC (Example 3); settings: 168 h, agar plate, 27 °C, 7 days
Method: as §1

Saccharomyces cerevisiae = assay: Agar dilution MIC (Example 3); settings: 168 h, agar plate, 27 °C, 7 days
Method: as §1

Rhodotorula mucilaginosa = assay: Agar dilution MIC (Example 2); settings: 168 h, agar plate, 27 °C, 7 days
Outline: as §2

MIC [8] [mg/L] | MIC (Micrococcus luteus) [mg/L] | MIC (Rhodotorula rubra) [mg/L] | MIC (Alternaria alternata) [mg/L] | MIC (Chaetomium globosum) [mg/L] | MIC [9] [mg/L] | MIC (Saccharomyces cerevisiae) [mg/L] | MIC (Rhodotorula mucilaginosa) [mg/L] | SMILES | MIC [1] [mg/L] | MIC (Bacillus subtilis [2]) [mg/L] | MIC (Staphylococcus aureus) [mg/L] | MIC [3] [mg/L] | MIC (Bacillus subtilis [4]) [mg/L] | inhibition at 0.05 ppm ([5]; 72 h, read-out: Propagation inhibiting rate(%) 50ppb) [%] | inhibition at 0.5 ppm ([5]; 72 h) [%] | Judgment (Target bacteria: A) [6] | inhibition at 0.5 ppm [7] [%] | inhibition at 0.5 ppm ([5]; 500ppb, after 72 hours, cell number vs non-treated lot) [%]
– | – | – | – | – | – | – | – | CN(Cc1ccc(C(C)(C)C)cc1)Cc1ccc(Cl)c(Cl)c1 [Compound 3] | < 2 | 125 (≈ 372 µM) | 125 (≈ 372 µM) | < 2 | 125 (≈ 372 µM) | 90 | 94 | + (inhibiting zone (10 to 20 mm) is observed) | – | –
7.8 (≈ 27.7 µM) | 15.6 (≈ 55.4 µM) | 125 (≈ 444 µM) | 125 (≈ 444 µM) | 63 (≈ 224 µM) | 125 (≈ 444 µM) | 63 (≈ 224 µM) | 15.6 (≈ 55.4 µM) | Cc1cccc(CNCc2ccc(C(C)(C)C)cc2)c1C [Compound 27] | – | – | – | 7.8 (≈ 27.7 µM) | 31.3 (≈ 111 µM) | – | – | – | 90 | 89
